The results in this text go back to PubChem BioAssay (NCI).

Assay in all cases: DTP human tumour cell line panel, 48 h
The test system of assay [1] is SW-620 colon.
Assay [2] concerns MALME-3M melanoma.
The test system of assay [3] is SN12C renal.
The test system of assay [4] is OVCAR-5 ovarian.
The test system of assay [5] is DU-145 prostate.
Assay [6] relates to SK-MEL-2 melanoma.
Assay [7] concerns HCT-116 colon.
For assay [8], the system named is OVCAR-3 ovarian.
The subject of assay [9] is M14 melanoma.
Assay [10] deals with UACC-62 melanoma.

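Cells were grown in 96-well plates and exposed to each compound for 48 hours at five concentrations; endpoints were interpolated linearly between bracketing concentrations, or set to the highest concentration if not reached. TGI denotes the concentration required for complete inhibition of growth.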

Take `COC(=O)C1=C(C(=O)OC)SC2(S1)C(C(=O)OC)=C(C(=O)OC)Sc1c2ssc1=O`: the TGI (usually the concentration giving total growth inhibition) came to 2.47 µM in assay [1]; 1.55 µM in assay [2]; 2.96 µM in assay [3]; 5.02 µM in assay [4]; 2.33 µM in assay [5]; 4.1 µM in [6]. In addition, the TGI was 1.78 µM in assay [7], 2.38 µM in assay [8], 3.88 µM in assay [9] and 1.37 µM in assay [10].
As to `CN1CN(c2ccccc2)C2(CCN(C(=O)OC(C)(C)C)CC2)C1=O`, the TGI in [1], in assay [2], in assay [3], in [4], in assay [5] and in [6] was greater than 100 µM each time. The TGI in assay [7], in assay [8], in assay [9] and in [10] was greater than 100 µM each time.
Take `CC(C)(C)c1ccc(OCCOc2ccc(C(C)(C)C)cc2NC=O)c(NC=O)c1`: the TGI in assay [1] was greater than 58.3 µM; in assay [2] it was 24.8 µM; in assay [3], 30.8 µM; in assay [4] it was 75.5 µM; in [5] it was greater than 87.9 µM; in assay [6] it was 36.6 µM. In addition, the TGI stood at 33.5 µM in assay [7], 36.5 µM in assay [8], 20.7 µM in assay [9] and 28.1 µM in [10].
On to `COc1ccc(/C=C2\CCC(C)(CN(C)C)C2=O)cc1Br` (stereo not given), for which the TGI in [1] was 38.4 µM; in assay [2], 61.9 µM; in assay [3] it was 31.8 µM; in assay [4], greater than 100 µM; in [5], greater than 100 µM; in assay [6], 36.9 µM. In addition, the TGI is 32.1 µM in [7], 35.2 µM in assay [8], 35.1 µM in assay [9] and 20 µM in assay [10].
For `CC(=O)OC1CC[C@@]2(C)C(=CC[C@@H]3[C@@H]2CC[C@]2(C)Nc4c(cnn4-c4ccc(F)cc4)C[C@@H]32)C1` (stereo not given in full), the TGI in [1] was greater than 100 µM; in assay [2], greater than 77.6 µM; in assay [3] it was greater than 100 µM; in assay [4] it was greater than 100 µM; in assay [5], greater than 100 µM; in assay [6], greater than 73.6 µM. Further, the TGI was greater than 50.5 µM in assay [7], greater than 100 µM in assay [8], greater than 100 µM in assay [9] and greater than 71.1 µM in assay [10].
For `C=C1C(O)C2OC(=O)C(=C)C2C(OC(=O)/C(C)=C/C)CC2(C)OC2C2OC12` (stereo not given), the TGI in [1] is greater than 100 µM; in assay [2], 29 µM; in assay [3] it was 14.8 µM; in [4], 83.7 µM; in assay [5] it was greater than 100 µM; in assay [6], 38.4 µM. In addition, the TGI in [7] was greater than 100 µM; in assay [8], 26.2 µM; in [9], greater than 100 µM; in assay [10], 48.2 µM.
In the case of `CCOC(=O)C1=C(C)NC(c2ccccc2)=C(C(=O)OCc2ccccc2)C1C#Cc1ccccc1` (stereo not given), the TGI in assay [1], in assay [2], in [3], in assay [4], in assay [5] and in [6] was greater than 100 µM throughout. For the same molecule, the TGI in assay [7], in assay [8], in assay [9] and in assay [10] was greater than 100 µM in each case.
Consider `COc1cccc2c1CCc1sc(CN3CCN(C)CC3)nc1-2`, for which the TGI in assay [1], in [2], in assay [3], in assay [4], in assay [5] and in assay [6] was greater than 100 µM in each case. Moreover, the TGI in assay [7] is greater than 100 µM; in [8], greater than 100 µM; in assay [9], greater than 100 µM; in [10], 65.7 µM.
Regarding `COc1ccc2cc(CNCCOCCOCCNCc3ccc4cc(OC)ccc4c3)ccc2c1`, the TGI in assay [1] came out at 3.69 µM; in assay [2] it was 2.83 µM; in [3] it was 3.85 µM; in [4], 3.89 µM; in [5] it was 3.15 µM; in assay [6], 3.18 µM. The TGI is 7.86 µM in [7], 3.54 µM in [8], 0.687 µM in [9] and 3.38 µM in [10].
On to `C1=Nc2ccc(cc2)-c2ccc(cc2)N=Cc2ccccc2OCc2cccc(n2)COc2ccccc21`, for which the TGI is greater than 100 µM in assay [1]; greater than 100 µM in assay [2]; greater than 100 µM in assay [3]; greater than 100 µM in assay [4]; greater than 100 µM in [5]; greater than 76.3 µM in assay [6]. In addition, the TGI in assay [7], in assay [8], in assay [9] and in [10] was greater than 100 µM each time.
With `COc1c(C(=O)CC2c3c(cc4oc(C)cc(=O)c4c3OC)OC(=N)C2c2nc3ccccc3[nH]2)c(O)c(OC)c2occc12` (stereo not given), the TGI in [1], in assay [2], in assay [3], in assay [4], in [5] and in assay [6] was greater than 100 µM each time. Further, the TGI in [7], in assay [8], in [9] and in assay [10] was greater than 100 µM in each case.
With `O=S1(=O)OCCOS(=O)(=O)C1C1c2ccccc2-c2ccccc21`, the TGI in [1], in [2], in assay [3], in [4], in assay [5] and in assay [6] was greater than 100 µM each time. Further, the TGI in [7], in assay [8], in assay [9] and in assay [10] was greater than 100 µM throughout.
